Measured values published in patent publication US20040259948A1, “Reciprocal regulation of inflammation and lipid metabolism by liver X receptors” (priority 2003, published 2004).

How the values were obtained:
Type in all cases: cell-based
[1] = system: human peripheral blood mononuclear cells; assay: TNF-induced gene expression in human peripheral blood mononuclear cells; conditions: TNF 6 hours; real time qPCR
Procedure: (§1) Activation of LXR by synthetic ligands inhibits inflammatory gene expression in multiple human cell types (FIG. 7A-C). TNFα plays a role in the induction of inflammatory mediators in during inflammation. Cells were treated for 6 hours with TNF as indicated and gene expression was measured by real time qPCR.

[2] = system: human smooth muscle cells; assay: TNF-induced gene expression in human smooth muscle cells; conditions: TNF 6 hours; real time qPCR
Procedure: as §1

[3] = system: Thioglycolate-elicited murine peritoneal macrophages; assay: LPS-stimulated macrophages: NO production, iNOS and ABCA1 mRNA
Procedure: To investigate the role of LXRs in host defense, the influence of LXR agonists on macrophage responses to bacterial pathogens was tested. Thioglycolate-elicited peritoneal macrophages were infected in vitro with Escherichia coli. After 18 hours, expression of inducible nitric oxide synthase (iNOS) mRNA and nitric oxide (NO) production were assessed. […] This repression occurs over the same concentration range needed to induce the established LXR target gene ATP-binding cassette transporter A1 (ABCA1). A, LXR agonist inhibits nitrite production in response to bacterial infection. […] Cells were then infected with E. coli (A, B) or treated with 100 ng/ml LPS(C, D, E) as indicated. After 18 h, NO production was determined using a colorimetric assay (A, D), or mRNA levels were determined using real-time quantitative PCR assays (B, C, E). […] The inhibitory effect of LXR agonists on iNOS expression was dose-dependent and occurred over the same range of concentration as that required to induce ATP-binding cassette transporter A1 (ABCA1) (FIGS. 1D and E).
The anti-inflammatory activity of LXR ligands can be separated from the induction of lipid metabolism genes such as ABCA1. Murine peritoneal macrophages were treated with LPS to induce iNOS gene expression (FIG. 8A) and were assayed for ABCA1 mRNA by real time qPCR (FIG. 8B). NOx production was measured by colorimetric assay. […] The identification of LXR agonists with only anti-inflammatory activity should greatly increase the usefulness of such compounds as therapeutic agents, because they lack the unwanted side effects on lipid metabolism such as elevation of triglyceride levels.
Cell culture and transfections. Thioglycolate-elicited peritoneal macrophages were cultured in RPMI containing 10% fetal bovine serum (FBS). RAW 264.7 cells were cultured in DMEM containing 10% FBS. For ligand treatments, cells were in cultured medium supplemented with 5% lipoprotein-deficient serum (LPDS) and ligands for 18 h before stimulation. Bacterial infection in vitro was performed as described (Chen, L. M. et al. 1996 Mol Microbiol 21:1101-1115). Transient transfections of RAW 264.7 cells were performed in triplicate in 48-well plates using Superfect reagent (Life Technologies). After transfection, cells were incubated in medium containing 10% LPDS and the indicated ligands for 18 h before stimulation with LPS for an additional 18 h. Luciferase activity was normalized to β-galactosidase activity. NO production was determined spectrophotometrically (Castrillo, A. et al. 2000 Mol Cell Biol 20:1692-1698).
RNA and protein analysis. Total RNA was extracted using Trizol reagent (Life Technologies, Inc.). Northern blot analysis was carried out as described using radiolabeled cDNA probes (Tontonoz, P. et al. 1998 Cell 93:241-252). Real-time quantitative PCR (TaqMan) analysis was performed using an Applied Biosystems 7700 sequence detector. Two-step real-time PCR was performed as described (Joseph, S. B. et al. 2002 J Biol Chem 277:11019-11025). The primers and probes used are as follows: […]

[4] = system: Thioglycolate-elicited murine peritoneal macrophages; assay: IL-1β- or TNFα-induced inflammatory gene expression in macrophages; conditions: pretreated 18 h; IL-1β or TNFα (50 ng/ml); real-time quantitative PCR
Procedure: Next, the influence of LXR agonists on inflammatory gene expression induced by IL-1β and TNFα, which have been implicated in the pathogenesis of atherosclerosis, was tested. […] Gene expression was detected by real-time quantitative PCR assays. […] Total RNA was isolated from individual aortas and gene expression was measured by real-time quantitative PCR. P<0.05 for MMP-9 (*) and P<0.01 (**) for ABCA1. […] Thus, LXR agonist reduces expression of an established inflammatory mediator in the vessel wall. Cell culture and transfections. Thioglycolate-elicited peritoneal macrophages were cultured in RPMI containing 10% fetal bovine serum (FBS). RAW 264.7 cells were cultured in DMEM containing 10% FBS. For ligand treatments, cells were in cultured medium supplemented with 5% lipoprotein-deficient serum (LPDS) and ligands for 18 h before stimulation. Bacterial infection in vitro was performed as described (Chen, L. M. et al. 1996 Mol Microbiol 21:1101-1115). Transient transfections of RAW 264.7 cells were performed in triplicate in 48-well plates using Superfect reagent (Life Technologies). After transfection, cells were incubated in medium containing 10% LPDS and the indicated ligands for 18 h before stimulation with LPS for an additional 18 h. Luciferase activity was normalized to β-galactosidase activity. NO production was determined spectrophotometrically (Castrillo, A. et al. 2000 Mol Cell Biol 20:1692-1698). RNA and protein analysis. Total RNA was extracted using Trizol reagent (Life Technologies, Inc.). Northern blot analysis was carried out as described using radiolabeled cDNA probes (Tontonoz, P. et al. 1998 Cell 93:241-252). Real-time quantitative PCR (TaqMan) analysis was performed using an Applied Biosystems 7700 sequence detector. Two-step real-time PCR was performed as described (Joseph, S. B. et al. 2002 J Biol Chem 277:11019-11025). The primers and probes used are as follows: […]

[5] = 100 ng/ml LPS, 18 h, real-time quantitative PCR, FIG. 1E

In the case of O=C(O)Cc1cccc(OCCCN(Cc2cccc(C(F)(F)F)c2Cl)CC(c2ccccc2)c2ccccc2)c1 [GW3965], the TNF-induced gene expression [1] is reported as “inhibited”, the TNF-induced gene expression [2] is reported as “inhibited” and the “nitrite production, dose response” value ([3]; 100 ng/ml LPS, 18 h, colorimetric assay, FIG. 1D) is reported as “Dose-dependent inhibition”. For the same compound, the “ABCA1 mRNA expression, dose response” value [3, 5] was “Reciprocal dose-dependent regulation”, the “iNOS mRNA expression, dose response” value [3, 5] was “Reciprocal dose-dependent regulation” and the “inhibition of inflammatory genes (NOx production), T1317 compared with GW3965” value ([3]; LPS, increasing doses, colorimetric assay, FIG. 8A) was “more effective inhibitor”. The “induction of IL-6 expression” value [4] was “inhibited” and the “induction of iNOS expression” value [4] was “inhibited”.
